Measured values: US20120077836A1, “METHODS OF ADMINISTERING (4AR,10AR)-1-N-PROPYL-1,2,3,4,4A,5,10,10A-OCTAHYDROBENZO [G] QUINOLINE-6,7-DIOL AND RELATED COMPOUNDS ACROSS THE ORAL MUCOSA, THE NASAL MUCOSA OR THE SKIN AND PHARMACEUTICAL COMPOSITIONS THEREOF” (priority 2009, published 2012)
Where “and” joins values, the source holds several entries; their conditions need not be identical. Equal entries are not always repeated. Structures can show the parent of a compound that is named as a salt. Where two headings read alike, the source gives them in different places.

Test: Intravenous and buccal pharmacokinetic study in the minipig
Assay type: in vivo
Protocol: The test article was compound 10. The vehicles for the test article were Sterile saline (0.9% NaCl) (intravenous administration) supplied by Baxter, Norfolk or Ascorbic acid reconstituted in Water for Injection (buccal administration) supplied by VWR International, Leicestershire. Formulations were prepared on the day of dosing.
Three male minipigs of the Göttingen ApS strain were supplied by Ellegaard Göttingen, Dalmose, Denmark. At initiation of dosing, animals were approximately 15 to 17 weeks old. Each animal was dosed once on three separate occasions according to the following study design:
Animals were deprived of food overnight and anaesthetised with isoflurane in oxygen (administered by facemask), prior to each dosing occasion.
Intravenous administrations were performed by slow manual injection via a temporary catheter placed in the ear vein whilst under anaesthesia, animals were allowed to recover from the anaesthesia immediately after dosing. Whilst anaesthetised, a catheter was inserted into the jugular vein and secured in place for the purpose of blood collection. The catheter was filled with heparin (250 iu/mL in 0.9% sodium chloride). The exterior portion of the catheter was routed from the ventral neck to the dorsum of the minipig and protected by bandaging. The distal end of the catheter was capped and placed in a re-sealable pouch within the bandage. The jugular catheter was retained in place and flushed with heparinised saline every 24 hours.
Buccal administrations were performed by applying the test formulation to the buccal membrane for 5 minutes while the animal was anaesthetised. Any residual formulation remaining in the mouth after the 5 minute application was […]. Animals were allowed to recover from the anaesthesia immediately after dosing.
, all animals on Day 3 following buccal administration of a low dose and all animals on Day 5 following buccal administration of a high dose for pharmacokinetic analysis. The samples (1.0 mL) were collected from the jugular vein (via catheter) into tubes containing EDTA anticoagulant. Prior to addition of the blood sample, 100 microL of a stabiliser (2% beta-mercaptoethanol containing 20 mg/mL ascorbic acid) was added to each pot. The stabiliser was prepared fresh on each day of sample collection. Samples were collected as follows: • Day 1: 5, 10, 15, 30 and 45 minutes and 1, 2, 4, 6, 8, 12 and 16 hours post-dose • Day 3: pre-dose and at 5, 10, 15, 30 and 45 minutes and 1, 2, 4, 6, 8, 12, 16 and 24 hours post-dose • Day 5: pre-dose and at 5, 10, 15, 30 and 45 minutes and 1, 2, 4, 6, 8, 12, 16 and 24 hours post-dose
The times of the blood sampling were generally adhered to. The greatest deviation from the scheduled timepoints was one minute late at the 5 minute timepoint on Day 3. The blood samples were centrifuged within one hour of sample collection and the resultant plasma was frozen prior to analysis.
The plasma concentrations of compound 10 were determined after solid phase extraction of the plasma samples followed by high performance liquid chromatography with tandem mass spectrometric detection (LC-MS/MS) using a sample volume of about 100 microL.
Internal standard solution, containing the internal standard of compound 10 was added to thawed plasma samples (100 microL aliquot). The SPE plate (Oasis HLB, 10 mg) was conditioned with methanol (500 microL) followed by water (500 microL). The sample (approx. 500 microL aliquot) was transferred to the pre-conditioned SPE plate. The sample was then passed through the cartridge, which was then washed with water:methanol (90:10 v/v, 0.5 mL). The sample was then eluted into a fresh 96 well polypropylene collection plate with 20 mM ammonium formate (aq): acetonitrile: formic acid (50:50:2 v/v/v, 250 microL). The organic component of the eluted samples was then evaporated under a gentle stream of nitrogen until approximately 50% of the original volume was remaining. […]

[1] = IV 0.0025 mg/kg, individual animals 1-3, hydrobromide, 0.0025 mg/kg
[2] = buccal 0.010 mg/kg, individual animals 1-3, hydrobromide
[3] = buccal 40 μg/kg versus 10 μg/kg, males
[4] = buccal 0.040 mg/kg, individual animals 1-3, hydrobromide
[5] = buccal, 0.010 to 0.040 mg/kg (4-fold dose increase)

With `CCCN1CCC[C@@H]2Cc3c(ccc(O)c3O)C[C@H]21` [compound 10, (4aR,10aR)-1-n-Propyl-1,2,3,4,4a,5,10,10a-octahydro-benzo[g]quinoline-6,7-diol hydrobromide] the “Plasma concentration Day 1 Hour 0.08” value [1] was 1.72 ng/mL and 1.92 ng/mL, the “Plasma concentration Day 1 Hour 0.17” value [1] was 0.976 ng/mL and 1.26 ng/mL and the “Plasma concentration Day 1 Hour 0.25” value [1] was 1.17 ng/mL and 0.828 ng/mL. The “Plasma concentration Day 1 Hour 0.5” value [1] was 0.922 ng/mL and 0.536 ng/mL, the “Plasma concentration Day 1 Hour 0.75” value [1] was 0.656 ng/mL and 0.667 ng/mL and the “Plasma concentration Day 1 Hour 1” value [1] was 0.432 ng/mL and 0.451 ng/mL. The “Plasma concentration Day 1 Hour 2” value [1] was 0.196 ng/mL and 0.352 ng/mL, the “Plasma concentration Day 1 Hour 4” value [1] was 0.0763 ng/mL and 0.115 ng/mL and the “Plasma concentration Day 1 Hour 6” value [1] was 0.0562 ng/mL and 0.0756 ng/mL. The “Plasma concentration Day 1 Hour 8” value [1] was 0.0339 ng/mL and 0.0407 ng/mL, the “Plasma concentration Day 1 Hour 12” value [1] was 0.0299 ng/mL and 0.0209 ng/mL and the “Plasma concentration Day 1 Hour 16” value (IV 0.0025 mg/kg, individual animals 1-3, values below LLOQ 10 pg/mL estimated, hydrobromide, 0.0025 mg/kg) was 0.00925 ng/mL and 0.0101 ng/mL. The “time of maximum plasma concentration” value (IV bolus 0.0025 mg/kg, first sampling time) was 5 min, the “time of maximum plasma concentration” value (buccal 0.010 mg/kg and 0.040 mg/kg) was “about 0.75 hours” and the “Plasma concentration Day 1 Hour 4” value [2] was 0.0983 ng/mL and 0.0917 ng/mL and 0.206 ng/mL. The “Plasma concentration Day 1 Hour 6” value [2] was 0.0845 ng/mL and 0.0265 ng/mL and 0.0758 ng/mL, the “Plasma concentration Day 1 Hour 8” value [2] was 0.0467 ng/mL and 0.0261 ng/mL and 0.0554 ng/mL and the “Plasma concentration Day 1 Hour 12” value [2] was 0.0268 ng/mL and 0.0234 ng/mL and 0.157 ng/mL. For the same molecule, the “Plasma concentration Day 3 Hour 0.08” value [2] was 0.0161 ng/mL and 0.379 ng/mL and 0.0552 ng/mL, the “Plasma concentration Day 3 Hour 0.17” value [2] was 0.117 ng/mL and 0.105 ng/mL and 0.221 ng/mL and the “Plasma concentration Day 3 Hour 0.25” value [2] was 0.134 ng/mL and 0.185 ng/mL and 0.622 ng/mL. For the same molecule, the “Plasma concentration Day 3 Hour 0.5” value [2] was 0.758 ng/mL and 0.556 ng/mL, the “Plasma concentration Day 3 Hour 0.75” value [2] was 1.1 ng/mL and 0.964 ng/mL and the “Plasma concentration Day 3 Hour 1” value [2] was 0.791 ng/mL and 0.817 ng/mL. For the same molecule, the “Plasma concentration Day 3 Hour 2” value [2] was 0.501 ng/mL and 0.372 ng/mL, the “Plasma concentration Day 1 Hour 24” value (buccal 0.010 mg/kg, individual animals 1-3, values below LLOQ 10 pg/mL estimated, hydrobromide) was <0.002 ng/mL and 0.00494 ng/mL and 0.0261 ng/mL and the “Increase in AUC0-∞ (first line)” value [3] was 12.1 fold. For the same molecule, the “Increase in AUC0-∞ (second line)” value [3] was 18.9 fold, the “increase in Cmax” value [3] was 11.9 fold and the “Plasma concentration Day 1 Hour 4” value [4] was 2.56 ng/mL and 0.746 ng/mL and 2.49 ng/mL. For the same molecule, the “Plasma concentration Day 1 Hour 6” value [4] was 0.781 ng/mL and 0.278 ng/mL and 1.73 ng/mL, the “Plasma concentration Day 1 Hour 8” value [4] was 0.445 ng/mL and 0.212 ng/mL and 0.91 ng/mL and the “Plasma concentration Day 1 Hour 12” value [4] was 0.272 ng/mL and 0.139 ng/mL and 1.4 ng/mL. For the same molecule, the “Plasma concentration Day 1 Hour 16” value [4] was 0.142 ng/mL and 0.0584 ng/mL and 0.677 ng/mL, the “Plasma concentration Day 1 Hour 24” value [4] was 0.0443 ng/mL and 0.0789 ng/mL and 0.233 ng/mL and the “Plasma concentration Day 5 Hour 0.08” value [4] was 2.75 ng/mL and 0.695 ng/mL and 0.427 ng/mL. The “Plasma concentration Day 5 Hour 0.17” value [4] was 6.06 ng/mL and 1.93 ng/mL and 1.82 ng/mL, the “Plasma concentration Day 5 Hour 0.25” value [4] was 9.14 ng/mL and 3.33 ng/mL and 3.89 ng/mL and the “Plasma concentration Day 5 Hour 0.5” value [4] was 8.23 ng/mL and 5.31 ng/mL. For the same molecule, the “Plasma concentration Day 5 Hour 0.75” value [4] was 10.7 ng/mL and 10.5 ng/mL, the “Plasma concentration Day 5 Hour 1” value [4] was 10.8 ng/mL and 9.58 ng/mL and the “Plasma concentration Day 5 Hour 2” value [4] was 8.68 ng/mL and 6.34 ng/mL and 3.88 ng/mL. For the same molecule, the “increase in AUC0-∞” value [5] was 12 fold, the “increase in Cmax” value [5] was 12 fold and the concentration at 0.5 h (male, Göttingen, in vivo, 0.01 mg/kg, buccal 0.010 mg/kg, individual animals 1-3, read-out: Plasma concentration Day 3 Hour 0.5) was 0.943 ng/mL. For the same molecule, the concentration at 0.75 h (male, Göttingen, in vivo, 0.01 mg/kg, buccal 0.010 mg/kg, individual animals 1-3, read-out: Plasma concentration Day 3 Hour 0.75) was 1.07 ng/mL, the concentration at 1 h (male, Göttingen, in vivo, 0.01 mg/kg, buccal 0.010 mg/kg, individual animals 1-3, read-out: Plasma concentration Day 3 Hour 1) was 1 ng/mL and the concentration at 2 h (male, Göttingen, in vivo, 0.01 mg/kg, buccal 0.010 mg/kg, individual animals 1-3, read-out: Plasma concentration Day 3 Hour 2) was 0.589 ng/mL. For the same molecule, the concentration at 16 h (male, Göttingen, in vivo, 0.01 mg/kg, buccal 0.010 mg/kg, individual animals, below LLOQ 10 pg/mL, estimated, read-out: Plasma concentration Day 1 Hour 16) was 0.00691 ng/mL, the concentration at 16 h (male, Göttingen, in vivo, 0.01 mg/kg, buccal 0.010 mg/kg, mean (one animal only), read-out: Plasma concentration Day 1 Hour 16, Mean) was 0.00691 ng/mL and the concentration at 4 h (male, Göttingen, in vivo, 0.01 mg/kg, buccal 0.010 mg/kg, mean, read-out: Plasma concentration Day 1 Hour 4, Mean) was 0.132 ng/mL. It also gave a concentration at 6 h (male, Göttingen, in vivo, 0.01 mg/kg, buccal 0.010 mg/kg, mean, read-out: Plasma concentration Day 1 Hour 6, Mean) of 0.0623 ng/mL, a concentration at 8 h (male, Göttingen, in vivo, 0.01 mg/kg, buccal 0.010 mg/kg, mean, read-out: Plasma concentration Day 1 Hour 8, Mean) of 0.0427 ng/mL and a concentration at 12 h (male, Göttingen, in vivo, 0.01 mg/kg, buccal 0.010 mg/kg, mean, read-out: Plasma concentration Day 1 Hour 12, Mean) of 0.0691 ng/mL. It also gave a concentration at 24 h (male, Göttingen, in vivo, 0.01 mg/kg, buccal 0.010 mg/kg, mean, read-out: Plasma concentration Day 1 Hour 24, Mean) of 0.0155 ng/mL and a concentration at 0.08 h (male, Göttingen, in vivo, 0.01 mg/kg, buccal 0.010 mg/kg, mean, read-out: Plasma concentration Day 3 Hour 0.08, Mean) of 0.15 ng/mL.
